Measured values from US20250262308A1, “Compositions and Methods for Modulating Dopamine Receptor Activity” (The Regents of the University of California, priority 2022, published 2025).

Tests used:
[1] = target: T1, D2R (Homo sapiens, UniProt P14416); assay: GIRK activation assay, whole-cell patch clamp, HEK293T co-transfected with M, D2R and GIRK1 (F137S); format: cell-based; settings: for photo-agonism of D2R (GIRK inward current): P tethered to M, compared with saturating dopamine (1 μM)
T1 construct: expressed in transfected cells; host or cells: HEK293T
Experimental: D2R photo-activation was evaluated in a G protein-activated inwardly rectifying K^+ channel (GIRK) activation assay. The M anchoring protein was re-designed by substituting the SNAP-tag at its external N-terminal with a HALO-tag (FIG. 3A). HEK293T were co-transfected with M, D2R and the homotetramerizing mutant of GIRK1 (F137S), making it possible to detect D2R activation as Gi/o-dependent GIRK inward-current at high external K^+ and negative holding potential. Transfected cells were patch clamped in whole-cell configuration and alternately irradiated with 440 nm light or perfused with a saturating (1 μM) concentration of dopamine to elicit maximal D2R activation.
(A) Schematic representation of D2R activation by MP-D2ago in response to light. (B, C) Representative traces of MP-D2ago with one (1×; B) or two (2×; C) branch points. (D) Summary of the maximal photo-activation of D2R by MP-D2ago relative to a saturating concentration of DA (1 μM). […] Summary of the activation and deactivation kinetics (E) and light sensitivity (F) of D2R in response to 1× or 2×MP-D2ago.
To complement our cell-targeted D2R photo-agonist, a tethered photo-antagonist for D2R was designed. The same photoswitch architecture was employed; however, in this case, one of two substituted phenyl piperazines was used as a head group (FIG. 5A). Two variant phenyl piperazines, 2,3-dichloro- and 2-methoxy-phenylpiperazine, were chosen as the core scaffold. To each of these, we appended a 3-carbon (C3) linker followed by the same PEG- and HALO substrate employed in the synthesis of P-D2ago, thereby generating potential photo-antagonists. […] A 4-carbon linker at this position was tested.
FIG. 5A-5G: Evaluation of phenylpiperazine-based MPs of D2R in HEK293T cells. A) Chemical structures of P-D2 constructs used to label the M protein. B) Schematic representation MP-D2block,C3 and MP-D2pa,C3 activity under light irradiation. CD) Patch clamp electrophysiology traces of tethered partial agonists. E) Schematic representation of dopamine blocking by MP-D2block under light irradiation. F,G) Patch clamp electrophysiology traces of tethered D2 antagonist.

[2] = UV/Vis photophysical characterization of the photoswitch; format: physicochemical
Experimental: FIG. 2A-2E. Synthesis of P-D2ago and photophysical characterization. A) Chemical Synthesis of P-D2ago. B) UV Vis absorbance spectra of P-D2ago (20 μM in DMSO, 24° C.) in the dark and under 415 nm irradiation. C) Wavelength scan for P-D2ago (20 μM, DMSO, 24° C.). Each wavelength is applied for 2 minutes. […] E) Thermal relaxation of P-D2ago in DMSO after 1 minute irradiation with 415 nm at 37° C. F) Synthesis of branched, photoswitchable amino indenyl dimer P-D2ago-2X.
UV Vis data were analyzed and plotted using […] Prism. Irradiation was achieved from the top of the cuvette through a fiber-optic cable. […] Absorbance (reported as Abs, in arbitrary units) was measured at 420 nm over time. Thermal Relaxation was measured after 1 min irradiation with 415 nm at 10 or 20 μM, and subsequently absorption increase was detected at 420 nm. The relaxation half-live of the cis-isomer was determined by curve fitting, using exponential one-phase decay in […] Prism. Photostationary states were determined by pre-irradiation of samples (20 uM, DMSO) for 10 min at the respective wavelengths. Samples for LCMS separation were prepared under red-light conditions in amber vials and immediately subjected to LCMS.
FIG. 8A-8E: Photophysical Characterization of P-D1block(24) A) UV Vis absorption spectra of dark-adapted (100% trans) P-D1block(24) in DMSO (20 μM), and after preirradiation with 370/460 nm for 10 min. […] C) Photostationary state (PSS) of P-D1block(24) in DMSO (20 μM, 24° C.), after preirradiation with 360/420 nm for 10 min. Detection of PSS was achieved by LCMS by separation of isomers and integration of Abs at the isosbestic point of cis- and trans-isomers at the respective elution solvent mixtures. D, E) Thermal relaxation of P-D1block(24) in 10% DMSO in PBS and 100% DMSO at 37° C., detection of Abs at 340 nm after pre-irradiation of the samples for 10 min at 360 nm.

T1 sequence (P14416 whole entry): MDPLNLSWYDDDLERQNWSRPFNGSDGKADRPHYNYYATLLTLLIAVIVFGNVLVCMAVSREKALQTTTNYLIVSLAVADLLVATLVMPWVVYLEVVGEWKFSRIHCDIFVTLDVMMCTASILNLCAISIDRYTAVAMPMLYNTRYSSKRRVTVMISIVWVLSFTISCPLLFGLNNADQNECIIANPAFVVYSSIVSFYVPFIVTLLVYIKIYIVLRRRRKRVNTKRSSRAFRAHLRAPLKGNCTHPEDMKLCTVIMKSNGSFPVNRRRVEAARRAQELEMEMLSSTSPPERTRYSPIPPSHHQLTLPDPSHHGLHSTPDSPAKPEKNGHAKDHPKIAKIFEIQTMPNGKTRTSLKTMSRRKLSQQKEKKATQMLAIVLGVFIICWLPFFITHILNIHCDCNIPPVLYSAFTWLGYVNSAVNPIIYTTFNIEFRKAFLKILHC

| SMILES | photo-agonism of D2R (GIRK inward current) ([1]; 440 nm light) | reversible switching ([2]; 20 μM in DMSO, alternating irradiation) | thermal back-relaxation in aqueous environment ([2]; 10% DMSO in PBS) | absorption maximum ([2]; UV/Vis, 20 μM in DMSO, 24° C.) | wavelength of maximal switching into the cis-form (maximum PSS) ([2]; wavelength scan, 20 μM, DMSO, 24° C.) | sensitivity to light, greater than P-D2ago ([1]; tethered to M) | activation kinetics, faster than P-D2ago ([1]; tethered to M, 440 nm light) | photo-antagonism of D2R activation by dopamine ([1]; tethered to M, 440 nm light, 1 uM dopamine) |
| --- | --- | --- | --- | --- | --- | --- | --- | --- |
| CCCN(CCCCNc1ccc(/N=N/c2ccc(NC(=O)CCOCCOCCOCCOCCOCCOCCOCCOCCOCCOCCOCCOCCOCCOCCOCCOCCOCCOCCOCCOCCOCCOCCOCCOCCNC(=O)CCC(=O)NCCOCCOCCCCCCCl)cc2)cc1)C1Cc2ccccc2C1 [P-D2ago] | full photo-agonism | without fatigue | exceeds the detection limit | 424 nm | 440 nm | – | – | – |
| CCCN(CCCCNc1ccc(/N=N/c2ccc(NC(=O)CCOCCOCCOCCOCCOCCOCCOCCOCCOCCOCCOCCOCCOCCOCCOCCOCCOCCOCCOCCOCCOCCOCCOCCOCCNC(=O)CCC(NC(=O)CCC(=O)NCCOCCOCCCCCCCl)C(=O)NCCOCCOCCOCCOCCOCCOCCOCCOCCOCCOCCOCCOCCOCCOCCOCCOCCOCCOCCOCCOCCOCCOCCOCCOCCC(=O)Nc3ccc(/N=N/c4ccc(NCCCCN(CCC)C5Cc6ccccc6C5)cc4)cc3)cc2)cc1)C1Cc2ccccc2C1 (stereo not shown) [2X-P-D2ago] | same maximal activation | – | – | – | – | ~5 fold | ~2 fold | – |
| COc1ccccc1N1CCNCC1 [2-methoxy-phenylpiperazine] | very weak partial agonism | – | – | – | – | – | – | very weak antagonism |
